Results reported in US20060004029A1, “Nitrogen-containing aromatic derivatives” (priority 2003, published 2006).
pIC50: −log10 of the molar value.

Molecular target: T1, FGFR1 (Homo sapiens, UniProt P11362)
T1 construct: made in house; host or cells: Sf9 insect cells, baculovirus (pFastBacHis), by the same method as VEGFR2
Assay: Inhibition against receptor tyrosine kinase activity (HTRF), FGFR1
Assay type: biochemical
Settings: His6-FGFR1 cytoplasmic domain, biotin-poly(GT), HTRF; read-out: FGFR1 kinase IC50
Text: This assay is used to determine inhibition of a test substance on tyrosine kinase activity. DNA coding for the cytoplasmic domain of VEGFR2 is obtained by total cDNA synthesis (Edwards M, International Biotechnology Lab 5(3), 19-25, 1987) or by cloning. Expression in an appropriate expression system can produce a polypeptide with tyrosine kinase activity. […] For VEGFR2 (GenBank Accession No. L04947), the 1.7 kb DNA fragment described by Terman et al. (Oncogene, 6(9), 1677-1683, 1991), coding for the cytoplasmic domain, beginning with lysine 791 and including the termination codon, was isolated from a human placental cDNA library (purchased from Clontech Laboratories, Inc.) and cloned in a Baculovirus expression vector (pFastBacHis, purchased from GIBCO BRL). The recombinant construct was transfected into insect cells (Spondoptea frugiperda9 (Sf9)) to prepare a recombinant Baculovirus. (Instructions for preparation and use of recombinant Baculovirus may be found in standard texts, such as “Bac-To-Bac Baculovirus Expression System” (GIBCO BRL).) The cytoplasmic fragment starting from lysine 398 (FGFR1, GenBank Accession No. X52833), the cytoplasmic fragment starting from lysine 558 (PDGFRβ, GenBank Accession No. M21616) or the cytoplasmic fragment starting from lysine 974 (HGFR, GenBank Accession No. J02958) may be cloned and expressed by the same method for use in assays for other tyrosine kinases. EGFR was purchased from Sigma Co. (Product No. E-2645).
For expression of the VEGFR2 tyrosine kinase, Sf9 cells were infected with the VEGFR2 recombinant virus and collected after 48 hours. The collected cells were rinsed with ice-cooled phosphate buffered saline (PBS) and then resuspended using 20 ml of ice-cooled Lysis Buffer (50 mM Tris-HCl (pH 8.5), 5 mM 2-mercaptoethanol, 100 mM KCl, 1 mM phenylmethylsulfonyl fluoride, 1% (v/v) NP-40) per 1.5×10^8 cells. The suspension was centrifuged at 12,000 rpm for 30 minutes at 4° C. and the supernatant was obtained. The supernatant was added to a Ni-NTA agarose column (3 ml, purchased from Qiagen) equilibrated with Buffer A {20 mM Tris-HCl (pH 8.5), 5 mM 2-mercaptoethanol, 500 mM KCl, 20 mM imidazole, 10% (v/v) glycerol}. The column was washed with 30 ml of Buffer A, and then with 6 ml of Buffer B {20 mM Tris-HCl (pH 8.5), 5 mM 2-mercaptoethanol, 1M KCl, 10% (v/v) glycerol}, and finally with 6 ml of Buffer A. After washing, it was eluted with 6 ml of Buffer C {20 mM Tris-HCl (pH 8.5), 5 mM 2-mercaptoethanol, 100 mM KCl, 100 mM imidazole, 10% (v/v) glycerol}. The eluate was placed on a dialysis membrane (purchased from Spectrum Laboratories) and dialyzed with a dialysis buffer {20 mM Tris-HCl (pH 7.5), 10% (v/v) glycerol, 1 mM dithiothreitol, 0.1 mM Na3VO4, 0.1 mM EGTA}. After dialysis, it was supplied for SDS-electrophoresis, and the recombinant protein (His6-VEGFR2, cytoplasmic domain of VEGFR2 fused with 6 histidine residues at the N-terminus) detected at a molecular weight of approximately 100 kDa with Coumassie Brilliant Blue staining was assayed using BSA (bovine serum albumin, purchased from Sigma Co.) as the standard substance, and stored at −80° C. until use. Using the same method for the cytoplasmic domains of FGFR1, PDGFRβ and HGFR yielded respective recombinant proteins fused with 6 histidine residues at the N-terminal (His6-FGFR1, His6-PDGFRβ or His6-HGFR).
The tyrosine kinase reaction was conducted as follows. In the case of VEGFR2, for example, 10 μl of a kinase reaction solution {200 mM Hepes (pH 7.4), 80 mM MgCl2, 16 mM MnCl2, 2 mM Na3VO4}, 250 ng of biotin-bound poly(Glu4:Tyr1) (biotin-poly(GT), purchased from CIS Diagnostics Co.) (6 μl of a 15-fold dilution with distilled water), 15 ng of His6-VEGFR2 (10 μl of a 240-fold dilution with 0.4% BSA solution) and the test substance dissolved in dimethyl sulfoxide (4 μl of a 100-fold dilution with 0.1% BSA solution) were added into each well of a 96-well round-bottom plate (NUNC Co., Product No. 163320), to a total of 30 μl. […]

T1 sequence (P11362 398-822 limits assumed): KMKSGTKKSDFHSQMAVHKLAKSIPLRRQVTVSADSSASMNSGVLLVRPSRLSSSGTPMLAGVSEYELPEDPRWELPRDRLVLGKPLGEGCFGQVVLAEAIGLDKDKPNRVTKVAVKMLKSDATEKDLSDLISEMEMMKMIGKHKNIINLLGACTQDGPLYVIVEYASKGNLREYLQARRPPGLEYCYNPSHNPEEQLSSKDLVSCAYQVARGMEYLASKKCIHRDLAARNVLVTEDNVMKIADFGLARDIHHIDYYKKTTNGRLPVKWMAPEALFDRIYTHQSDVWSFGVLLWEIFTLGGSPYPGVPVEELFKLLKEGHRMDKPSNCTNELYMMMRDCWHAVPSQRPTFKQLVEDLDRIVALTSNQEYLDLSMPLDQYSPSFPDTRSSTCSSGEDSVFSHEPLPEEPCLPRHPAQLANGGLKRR

| SMILES | pIC50 |
| --- | --- |
| CNC(=O)n1ccc2cc(Oc3ccnc(NC(=O)N4CCC(O)CC4)c3)ccc21 [Example 39, N1-Methyl-5-(2-((4-hydroxypiperidino)carbonyl)amino-4-pyridyl)oxy-1H-1-indolecarboxamide] | 8.20 |
| CNC(=O)n1ccc2cc(Oc3ccnc(NC(=O)N4CCC(N5CCCC5)CC4)c3)ccc21 [Example 46, N1-Methyl-5-(2-(((4-(pyrrolidin-1-yl)piperidin-1-yl)carbonyl)amino)pyridin-4-yloxy)-1H-1-indolecarboxamide] | 7.92 |
| CNC(=O)n1ccc2cc(Oc3ccnc(NC(=O)N4CCC(N5CCCCC5)CC4)c3)ccc21 [Example 47, N1-Methyl-5-(2-(((4-(piperidin-1-yl)piperidin-1-yl)carbonyl)amino)pyridin-4-yloxy)-1H-1-indolecarboxamide] | 7.68 |

Compounds with a higher pIC50, results first:

| pIC50 | SMILES |
| --- | --- |
| 8.49 | CNC(=O)n1ccc2cc(Oc3ccnc(NC(=O)N4CCC(C)(O)CC4)c3)ccc21 [Example 41, 5-(2-(((4-Hydroxy-4-methylpiperidin-1-yl)carbonyl)amino)pyridin-4-yloxy)-1H-1-indole-1-carboxylic acid methylamide] |
| 8.68 | CNC(=O)n1ccc2cc(Oc3ccnc(NC(=O)N4CCOCC4)c3)ccc21 [Example 53, N4-(4-(1-(Methylamino)carbonyl-1H-5-indolyl)oxy-2-pyridyl)-4-morpholinecarboxamide] |
